Results published in the supplement of paper PMC10307832.

Key:
Assay in all cases: relative viability (nuclei count vs DMSO), 5 days (fraction); higher = more cells survive
AZD5582 + Foretinib = compound: C[C@@H](C(=O)N[C@@H](C1CCCCC1)C(=O)N2CCC[C@H]2C(=O)N[C@@H]3[C@@H](CC4=CC=CC=C34)OCC#CC#CCO[C@@H]5CC6=CC=CC=C6[C@@H]5NC(=O)[C@@H]7CCCN7C(=O)[C@H](C8CCCCC8)NC(=O)[C@H](C)NC)NC [AZD5582] + COc1cc2c(Oc3ccc(NC(=O)C4(C(=O)Nc5ccc(F)cc5)CC4)cc3F)ccnc2cc1OCCCN1CCOCC1 [Foretinib] (partner 0.25 µM)
Method in brief: (§1)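 Lung cancer cell lines were pin-tool dosed in 1536-well plates on the day after seeding, with either a lone drug or a fixed anchor-drug dose plus five library-drug doses (not always all listed) in √10 steps. Nuclei were counted on 4× images after 5 days. Relative viability is the ratio of treated-well to vehicle-well nuclei counts, with each value a median of duplicate plates.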

Temozolomide + OSI-027 = compound: Cn1nnc2c(C(N)=O)ncn2c1=O [Temozolomide] + COc1cccc2cc(-c3nc([C@H]4CC[C@H](C(=O)O)CC4)n4ncnc(N)c34)[nH]c12 [OSI-027] (partner 0.5 µM)
Method in brief: as §1

Temozolomide + Lapatinib = compound: Cn1nnc2c(C(N)=O)ncn2c1=O [Temozolomide] + CS(=O)(=O)CCNCc1ccc(-c2ccc3ncnc(Nc4ccc(OCc5cccc(F)c5)c(Cl)c4)c3c2)o1 [Lapatinib] (partner 2 µM)
Method in brief: as §1

[1] = compound: Cn1nnc2c(C(N)=O)ncn2c1=O [Temozolomide] + Nc1nc2[nH]cc(CCc3ccc(C(=O)N[C@@H](CCC(=O)O)C(=O)O)cc3)c2c(=O)[nH]1 [Pemetrexed] (partner 0.2 µM)
Method in brief: as §1

Row | Cell Line | relative viability (AZD5582 + Foretinib; first compound 0.001581 µM) | relative viability (AZD5582 + Foretinib; first compound 0.005 µM) | relative viability (AZD5582 + Foretinib; first compound 0.01581 µM) | relative viability (AZD5582 + Foretinib; first compound 0.05 µM) | relative viability (Temozolomide + OSI-027; first compound 0.2 µM) | relative viability (Temozolomide + OSI-027; first compound 0.6325 µM) | relative viability (Temozolomide + OSI-027; first compound 2 µM) | relative viability (Temozolomide + OSI-027; first compound 6.325 µM) | relative viability (Temozolomide + OSI-027; first compound 20 µM) | relative viability (Temozolomide + Lapatinib; first compound 0.2 µM) | relative viability (Temozolomide + Lapatinib; first compound 0.6325 µM) | relative viability (Temozolomide + Lapatinib; first compound 2 µM) | relative viability (Temozolomide + Lapatinib; first compound 6.325 µM) | relative viability (Temozolomide + Lapatinib; first compound 20 µM) | relative viability ([1]; first compound 0.2 µM) | relative viability ([1]; first compound 0.6325 µM) | relative viability ([1]; first compound 2 µM) | relative viability ([1]; first compound 6.325 µM) | relative viability ([1]; first compound 20 µM)
1 | NCI-H1755 | 0.939 | 0.98 | 0.846 | 1 | 0.76 | 0.758 | 0.743 | 0.673 | 0.637 | 1.11 | 1.05 | 0.966 | 0.979 | 0.98 | 0.433 | 0.43 | 0.388 | 0.39 | 0.612
2 | NCI-H1793 | 0.737 | 0.827 | 0.572 | 0.908 | – | 0.279 | 0.27 | 0.245 | 0.232 | – | 0.81 | 0.608 | 0.649 | 0.694 | – | 1.19 | 1.03 | 0.718 | 0.792
3 | NCI-H1915 | 1.06 | 1.09 | 1.13 | 1.09 | 0.693 | 0.614 | 0.602 | 0.388 | 0.326 | 0.995 | 0.935 | 0.876 | 0.693 | 0.376 | 0.55 | 0.491 | 0.545 | 0.429 | 0.321
4 | NCI-H1944 | 0.8 | 0.976 | 0.93 | 1.05 | 0.428 | 0.378 | 0.474 | 0.377 | 0.382 | 0.835 | 0.831 | 0.871 | 0.843 | 0.799 | 0.546 | 0.601 | 0.564 | 0.58 | 0.623
5 | NCI-H1975 | 0.926 | 1.17 | 1.06 | 1.2 | 0.888 | 0.683 | 0.852 | 0.731 | 0.804 | 1.02 | 0.946 | 1.1 | 0.846 | 0.987 | 0.307 | 0.323 | 0.319 | 0.299 | 0.289
6 | NCI-H1993 | 0.792 | 0.786 | 0.854 | 0.715 | 0.522 | 0.556 | 0.536 | 0.535 | 0.621 | 0.879 | 0.854 | 0.768 | 0.865 | 0.925 | 0.517 | 0.669 | 0.598 | 0.569 | 0.525
7 | NCI-H2009 | 1.22 | 1.28 | 1.19 | 1.29 | 0.82 | 0.597 | 0.682 | 0.699 | 0.698 | 1.12 | 0.739 | 0.973 | 0.911 | 1.01 | 1.08 | 1.06 | 1.05 | 1.08 | 1.04
8 | NCI-H2023 | 0.805 | 0.851 | 0.802 | 0.804 | 0.375 | 0.39 | 0.475 | 0.329 | 0.413 | 0.894 | 0.67 | 0.86 | 0.773 | 0.868 | 0.232 | 0.249 | 0.249 | 0.221 | 0.228
9 | NCI-H2085 | 1.06 | 0.776 | 0.924 | 0.698 | 0.537 | 0.886 | 1.05 | 0.734 | 0.577 | 0.75 | 0.751 | 0.75 | 0.779 | 0.778 | 1.04 | 0.951 | 0.979 | 0.926 | 0.744
10 | NCI-H2087 | 0.957 | 1.24 | 1.05 | 1.16 | 0.628 | 0.565 | 0.634 | 0.464 | 0.612 | 1.07 | 0.992 | 0.902 | 1.09 | 0.983 | 0.624 | 0.667 | 0.663 | 0.676 | 0.696
11 | NCI-H2126 | 1.15 | 1.19 | 1.05 | 0.969 | 0.686 | 0.781 | 0.85 | 1.12 | 0.717 | 0.82 | 0.771 | 0.793 | 0.771 | 0.797 | 0.573 | 0.653 | 0.762 | 0.666 | 0.67
12 | NCI-H2170 | 1.04 | 1.01 | 1 | 1.09 | – | 0.825 | 0.875 | 0.575 | 0.34 | – | 0.28 | 0.295 | 0.264 | 0.247 | – | 0.283 | 0.264 | 0.253 | 0.237
13 | NCI-H2228 | 0.843 | 1 | 0.788 | 0.472 | 0.557 | 0.56 | 0.602 | 0.583 | 0.727 | 1.15 | 1.04 | 1.3 | 0.959 | 1.18 | 0.383 | 0.349 | 0.348 | 0.266 | 0.352
14 | NCI-H2347 | 0.688 | 0.736 | 0.557 | 0.794 | 0.338 | 0.428 | 0.501 | 0.376 | 0.432 | 1.18 | 1.01 | 0.93 | 0.781 | 0.908 | 0.466 | 0.447 | 0.429 | 0.426 | 0.461
15 | NCI-H2405 | 1 | 1.07 | 0.987 | 1.06 | 0.569 | 0.618 | 0.646 | 0.619 | 0.654 | 1.12 | 1.08 | 1.21 | 0.921 | 1.05 | 1.08 | 1.03 | 1.14 | 1.03 | 0.965
16 | NCI-H3122 | 0.977 | 0.994 | 0.933 | 0.602 | 0.404 | 0.995 | 1.33 | 0.949 | 1.03 | 1.01 | 1.03 | 1.09 | 0.968 | 1.04 | 0.187 | 0.205 | 0.188 | 0.196 | 0.193
